Counter-ions that a name gives are not always drawn. Like-named read-outs stand apart in the source and are kept apart here.
Test system: HTT
Test: Splicing assay (RT-qPCR on cell lysates) monitoring HTT splice variants: AJ and CJ mRNA
Type: cell-based
Details: concentration having 50% response
Experimental: Example 69: Exemplary Splicing Assay for Monitoring Expression Levels of Splice Variants
To set up 10 uL RT-qPCR reactions, cell lysates were transferred to 384-well qPCR plates containing the master mix according to the table below. The plates were sealed, gently vortexed, and spun down before the run. The volumes were adjusted accordingly in some instances where the reaction was carried in 20 uL. The table below summarizes the components of the RT-qPCR reactions:
The RT-qPCR reaction was performed using a QuantStudio (ThermoFisher) under the following fast cycling conditions. All samples and standards were analyzed at least in duplicate. In some instances, bulk room temperature (RT) step of 5-10 minutes was completed for all plates before proceeding with qPCR. The table below summarizes the PCR cycle:
The data analysis was performed by first determining the ΔCt vs the housekeeper gene. This ΔCt was then normalized against the DMSO control (ΔΔCt) and converted to RQ (relative quantification) using the 2^(−ΔΔCt) equation. The RQ were then converted to a percentage response by arbitrarily setting an assay window of 3.5 ΔCt for HTT-CJ and an assay window of 9 ΔCt for HTT-AJ. […] The percentage response was then fitted to the 4 parametric logistic equation to evaluate the concentration dependence of compound treatment. The increase in AJ mRNA is reported as AC50 (compound concentration having 50% response in AJ increase) while the decrease in CJ mRNA levels is reported as IC50 (compound concentration having 50% response in CJ decrease).

[1] = Table 7, decrease in CJ mRNA, read-out: HTT CJ AC50
[2] = Table 7, increase in AJ mRNA, read-out: HTT AJ AC50
[3] = Table 8, decrease in CJ mRNA, read-out: HTT CJ AC50
[4] = Table 8, increase in AJ mRNA, read-out: HTT AJ AC50

SMILES | AC50 [1] [µM] | AC50 [2] [µM] | AC50 [3] [µM] | AC50 [4] [µM]
C[C@H]1C[C@H](N(C)c2ccc(-c3ccc(-n4cccn4)c4cc[nH]c34)nn2)CCN1 [Compound 158] | > 5 | > 5 |  | 
CN(c1ccc(-c2ccc(-n3cccn3)c3cn[nH]c23)nn1)C1CCNCC1 [Compound 264] |  |  | > 10 | > 10
CC1(C)CC(Nc2ccc(-c3ccc(-c4cn[nH]c4)c4cn[nH]c34)nn2)CC(C)(C)N1 [Compound 275] |  |  | 0.1 to 1 | 1 to 10
CN(c1ccc(-c2ccc(-c3ccn(C)c(=O)c3)c3ncsc23)nn1)C1CC(C)(C)NC(C)(C)C1 [Compound 279] |  |  | 1 to 10 | 1 to 10
c1n[nH]cc1-c1ccc(-c2ccc(N3CCC4(CC3)CNC4)nn2)c2[nH]ncc12 [Compound 238] |  |  | > 10 | > 10
c1n[nH]cc1-c1ccc(-c2ccc(N3C[C@H]4CNC[C@H]4C3)nn2)c2[nH]ncc12 [Compound 254] |  |  | > 10 | > 10
c1nc2c(-c3cn[nH]c3)ccc(-c3ccc(N4CCC45CCNCC5)nn3)c2s1 [Compound 266] |  |  | 1 to 10 | > 10
CN(c1ccc(-c2ccc(-c3cn[nH]c3)c3cn[nH]c23)nn1)[C@@H]1C[C@H]2CC[C@@H](C1)N2 [Compound 104, (1R,3S,5S)—N-methyl-N-[6-[4-(1H-pyrazol-4-yl)-1H-indazol-7-yl]pyridazin-3-yl]-8-azabicyclo[3.2.1]octan-3-amine] |  | < 0.5 |  | 
c1n[nH]cc1-c1ccc(-c2ccc(N3CCC4(CCNCC4)C3)nn2)c2[nH]ncc12 [Compound 239] |  |  | > 10 | > 10
C[C@@H]1C[C@H](N(C)c2ccc(-c3ccc(-c4cn[nH]c4)c4nn[nH]c34)nn2)CCN1 [Compound 115] |  | > 5 |  | 
CN(c1cnc(-c2cc(F)c(-c3cn[nH]c3)c3cn[nH]c23)nn1)[C@@H]1C[C@H]2CC[C@@H](C1)N2 [Compound 149] | < 0.5 | < 0.5 |  | 
CN(c1ccc(-c2ccc(-c3cn[nH]c3)c3ccsc23)nn1)C1CC(C)(C)NC(C)(C)C1 [Compound 131, N-methyl-6-[4-(1H-pyrazol-4-yl)-1-benzothiophen-7-yl]-N-(2,2,6,6-tetramethylpiperidin-4-yl)pyridazin-3-amine] | > 5 | > 5 |  | 
c1n[nH]cc1-c1ccc(-c2ccc(N3CCC4(CCNC4)CC3)nn2)c2[nH]ncc12 [Compound 240] |  |  | > 10 | > 10
CN(c1ccc(-c2ccc(-c3cn[nH]c3)c3cn[nH]c23)nn1)[C@H]1C[C@]2(C)CC[C@](C)(C1)N2 [Compound 146, N,1,5-trimethyl-N-[6-[4-(1H-pyrazol-4-yl)-1H-indazol-7-yl]pyridazin-3-yl]-8-azabicyclo[3.2.1]octan-3-amine] | < 0.5 | < 0.5 |  | 
CN(c1ccc(-c2ccc(-c3cn[nH]c3)c3nn[nH]c23)nn1)[C@@H]1C[C@H]2CC[C@@H](C1)N2 [Compound 118, (1R,3S,5S)—N-methyl-N-[6-[7-(1H-pyrazol-4-yl)-3H-1,2,3-benzotriazol-4-yl]pyridazin-3-yl]-8-azabicyclo[3.2.1]octan-3-amine] | 0.5 to 5 | 0.5 to 5 |  | 
CC1C[C@@H](N(C)c2ccc(-c3ccc(-n4cccn4)c4cc[nH]c34)nn2)CCN1 (stereo in doubt) [Compound 111, N-methyl-N-[(2R,4S)-2-methylpiperidin-4-yl]-6-[4-(pyrazol-1-yl)-1H-indol-7-yl]pyridazin-3-amine] | > 5 | > 5 |  | 
COc1cc(-c2ccc(-c3ccc(N(C)C4CC(C)(C)NC(C)(C)C4)nn3)c3scnc23)ccn1 [Compound 280] |  |  | 0.1 to 1 | 0.1 to 1
c1n[nH]cc1-c1ccc(-c2ccc(N3CCC4(CCCNC4)C3)nn2)c2[nH]ncc12 (stereo not shown) [Compound 252] |  |  | > 10 | > 10
CN(c1ccc(-c2ccc(-c3cn[nH]c3)c3cn[nH]c23)nn1)C1CCNCC1 [Compound 273] |  |  | > 10 | > 10
CN(c1ccc(-c2ccc(-c3cnnc(O)c3)c3scnc23)nn1)C1CC(C)(C)NC(C)(C)C1 [Compound 234] |  |  | > 10 | > 10

SMILES | AC50 [1] [µM] | AC50 [2] [µM] | AC50 [3] [µM] | AC50 [4] [µM]
c1n[nH]cc1-c1ccc(-c2ccc(O[C@@H]3C[C@H]4CC[C@@H](C3)N4)nn2)c2[nH]ncc12 [Compound 142, 7-[6-[(1R,3S,5S)-8-azabicyclo[3.2.1]octan-3-yloxy]pyridazin-3-yl]-4-(1H-pyrazol-4-yl)-1H-indazole] | < 0.5 | 0.5 to 5 |  | 
CN(c1ccc(-c2ccc(-c3cn[nH]c3)c3ncsc23)nn1)C1CC(C)(C)NC(C)(C)C1 [Compound 132, N-methyl-6-[4-(1H-pyrazol-4-yl)-1,3-benzothiazol-7-yl]-N-(2,2,6,6-tetramethylpiperidin-4-yl)pyridazin-3-amine] | < 0.5 | < 0.5 |  | 
c1n[nH]cc1-c1ccc(-c2ccc(N3CCNCC3)nn2)c2[nH]ncc12 [Compound 241] |  |  | > 10 | 1 to 10
CN1C[C@@H]2CN(c3ccc(-c4ccc(-c5cn[nH]c5)c5cn[nH]c45)nn3)C[C@@H]2C1 [Compound 255] |  |  | > 10 | > 10
CN(c1ccc(-c2ccc(-n3cccn3)c3cn[nH]c23)nn1)[C@@H]1C[C@H]2CC[C@@H](C1)N2 [Compound 105, (1R,3R,5S)—N-methyl-N-[6-[4-(pyrazol-1-yl)-1H-indazol-7-yl]pyridazin-3-yl]-8-azabicyclo[3.2.1]octan-3-amine] | < 0.5 | < 0.5 |  | 
CN(c1ccc(-c2ccc(-c3cn[nH]c3)c3cc[nH]c23)nn1)[C@@H]1C[C@H]2CC[C@@H](C1)N2 [Compound 112, (1R,3S,5S)—N-methyl-N-[6-[4-(1H-pyrazol-4-yl)-1H-indol-7-yl]pyridazin-3-yl]-8-azabicyclo[3.2.1] octan-3-amine] | < 0.5 | 0.5 to 5 |  | 
c1n[nH]cc1-c1ccc(-c2ccc(N3CCCC4(CCNC4)C3)nn2)c2[nH]ncc12 (stereo not shown) [Compound 253] |  |  | > 10 | > 10
CN(c1ccc(-c2ccc(-c3cnn(C)c3)c3cn[nH]c23)nn1)C1CCNCC1 [Compound 242, N-methyl-6-[4-(1-methylpyrazol-4-yl)-1H-indazol-7-yl]-N-(piperidin-4-yl)pyridazin-3-amine;trifluoroacetic acid] |  |  | > 10 | > 10
CN(c1ccc(-c2ccc(-c3cnn(C)c3)c3cn[nH]c23)nn1)[C@@H]1C[C@H]2CC[C@@H](C1)N2 [Compound 143] | < 0.5 | 0.5 to 5 |  | 
CN(c1ccc(-c2ccc(-c3c[nH]nn3)c3cn[nH]c23)nn1)[C@@H]1C[C@H]2CC[C@@H](C1)N2 [Compound 141] | < 0.5 | < 0.5 |  | 
CN(c1ccc(-c2ccc(-c3cnn(C)c3)c3cn[nH]c23)nn1)C1CC(C)(C)NC(C)(C)C1 [Compound 243, N-methyl-6-[4-(1-methylpyrazol-4-yl)-1H-indazol-7-yl]-N-(2,2,6,6-tetramethylpiperidin-4-yl)pyridazin-3-amine; trifluoroacetic acid] |  |  | 1 to 10 | 1 to 10
c1n[nH]cc1-c1ccc(-c2ccc(NC3CNC3)nn2)c2[nH]ncc12 [Compound 237] |  |  | > 10 | > 10
CN1C[C@@H]2[C@H](C1)[C@H]2N(C)c1ccc(-c2ccc(-c3cn[nH]c3)c3ncsc23)nn1 [Compound 235, (exo)-N,3-dimethyl-N-{6-[4-(1H-pyrazol-4-yl)-1,3-benzothiazol-7-yl]pyridazin-3-yl}-3-azabicyclo[3.1.0]hexan-6-amine hydrochloride] |  |  | > 10 | > 10
CN(c1ccc(-c2ccc(-c3cn[nH]c3)c3cn[nH]c23)nn1)C1CC(C)(C)NC(C)(C)C1 [Compound 137, N-methyl-6-[4-(1H-pyrazol-4-yl)-1H-indazol-7-yl]-N-(2,2,6,6-tetramethylpiperidin-4-yl)pyridazin-3-amine] | 0.5 to 5 | 0.5 to 5 |  | 
c1nc2c(-c3cn[nH]c3)ccc(-c3ccc(N4CCC5(CCN5)C4)nn3)c2s1 (stereo not shown) [Compound 265, 7-(6-{1,6-diazaspiro[3.4]octan-6-yl}pyridazin-3-yl)-4-(1H-pyrazol-4-yl)-1,3-benzothiazole] |  |  | > 10 | > 10
CN(c1ccc(-c2ccc(-n3cccn3)c3cn[nH]c23)nn1)C1CC(C)(C)NC(C)(C)C1 [Compound 150, N-methyl-6-[4-(pyrazol-1-yl)-1H-indazol-7-yl]-N-(2,2,6,6-tetramethylpiperidin-4-yl)pyridazin-3-amine] | 0.5 to 5 | 0.5 to 5 |  | 
c1n[nH]cc1-c1ccc(-c2ccc(NC3CCNCC3)nn2)c2[nH]ncc12 [Compound 263, N-(piperidin-4-yl)-6-[4-(1H-pyrazol-4-yl)-1H-indazol-7-yl]pyridazin-3-amine hydrogen chloride] |  |  | > 10 | > 10
CN(c1ccc(-c2ccc(-c3ccc(=O)n(C)c3)c3ncsc23)nn1)C1CC(C)(C)NC(C)(C)C1 [Compound 281] |  |  | > 10 | > 10
[2H]C([2H])([2H])N(c1ccc(-c2ccc(-c3cn[nH]c3)c3cn[nH]c23)nn1)C1CCNCC1 [Compound 267] |  |  | > 10 | > 10
